Source: the supplement of paper PMC8671470

Key:
Details in all cases: 72 h
BV-173 [1] = system: BV-173
Procedure, shortened: (§1)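 Fifteen myeloid leukaemia cell lines were seeded in RPMI 1640 at densities titrated to the linear growth range and placed in 384-well plates with acoustically pre-printed compounds at five tenfold doses from 1 to 10,000 nM, in duplicate. After 72 h at 37 °C with 5% CO2, luminescent ATP viability was normalised to vehicle and to a positive control at 10 µM, and curves were fitted with a four-parameter log-logistic model. The IC50 was obtained from these fits.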

HEL [2] = system: HEL
Procedure, shortened: as §1

HL-60 [3] = system: HL-60
Procedure, shortened: as §1

K-562 [4] = system: K-562
Procedure, shortened: as §1

KCL-22 [5] = system: KCL-22
Procedure, shortened: as §1

KG-1 [6] = system: KG-1
Procedure, shortened: as §1

KU-812 [7] = system: KU-812
Procedure, shortened: as §1

LAMA-84 [8] = system: LAMA-84
Procedure, shortened: as §1

ML-2 [9] = system: ML-2
Procedure, shortened: as §1

MOLM-13 [10] = system: MOLM-13
Procedure, shortened: as §1

MV4-11 [11] = system: MV4-11
Procedure, shortened: as §1

Mono-Mac-6 [12] = system: Mono-Mac-6
Procedure, shortened: as §1

NOMO-1 [13] = system: NOMO-1
Procedure, shortened: as §1

SHI-1 [14] = system: SHI-1
Procedure, shortened: as §1

THP-1 [15] = system: THP-1
Procedure, shortened: as §1

BV-173 [16] = experiment: cell viability (% survival relative to DMSO control, bortezomib = 0%); higher = less cytotoxic
Procedure, shortened: (§2)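 Fifteen myeloid leukaemia cell lines (10 AML, 5 CML) were seeded at a density titrated to the linear growth range into 384-well plates pre-printed with compounds at 1, 10, 100, 1000 or 10000 nM in duplicate. Plates were incubated for 72 h at 37 °C with 5% CO2. Viability was then read by CellTiter-Glo luminescence. Each value is percent survival averaged over the duplicates, with vehicle set to 100% and a 10 µM positive control to 0%.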

HEL [17] = experiment: as above
Procedure, shortened: as §2

HL-60 [18] = experiment: as above
Procedure, shortened: as §2

K-562 [19] = experiment: as above
Procedure, shortened: as §2

KCL-22 [20] = experiment: as above
Procedure, shortened: as §2

KG-1 [21] = experiment: as above
Procedure, shortened: as §2

KU-812 [22] = experiment: as above
Procedure, shortened: as §2

LAMA-84 [23] = experiment: as above
Procedure, shortened: as §2

ML-2 [24] = experiment: as above
Procedure, shortened: as §2

MOLM-13 [25] = experiment: as above
Procedure, shortened: as §2

MV4-11 [26] = experiment: as above
Procedure, shortened: as §2

Mono-Mac-6 [27] = experiment: as above
Procedure, shortened: as §2

NOMO-1 [28] = experiment: as above
Procedure, shortened: as §2

SHI-1 [29] = experiment: as above
Procedure, shortened: as §2

THP-1 [30] = experiment: as above
Procedure, shortened: as §2

C#CCN[C@@H]1CCc2ccccc21 [Rasagiline]
Details	IC50 (cell viability) [µM]
BV-173 [1]	> 10
HEL [2]	> 10
HL-60 [3]	> 10
K-562 [4]	> 10
KCL-22 [5]	> 10
KG-1 [6]	> 10
KU-812 [7]	> 10
LAMA-84 [8]	> 10
ML-2 [9]	> 10
MOLM-13 [10]	> 10
MV4-11 [11]	> 10
Mono-Mac-6 [12]	> 10
NOMO-1 [13]	> 10
SHI-1 [14]	> 10
THP-1 [15]	> 10

cell viability [%]
Details	1 nM	10 nM	100 nM	1000 nM	10000 nM
BV-173 [16]	92.1	104	111	93.6	92.4
HEL [17]	118	115	117	90.1	135
HL-60 [18]	95.8	86.6	96.9	76.2	135
K-562 [19]	103	100	100	87.5	84.2
KCL-22 [20]	80.3	108	98.4	89.7	135
KG-1 [21]	88.3	116	98.5	89.8	114
KU-812 [22]	94.1	104	97.1	90.3	111
LAMA-84 [23]	98.2	106	106	91.8	97.2
ML-2 [24]	89.9	104	105	87.2	104
MOLM-13 [25]	93.9	109	111	95.9	111
MV4-11 [26]	97.8	104	108	91.7	96
Mono-Mac-6 [27]	92.4	105	101	80.9	100
NOMO-1 [28]	95.2	103	103	93.2	102
SHI-1 [29]	97.8	103	100	95.3	117
THP-1 [30]	102	102	103	96	101
